Where two headings read alike, the source gives them in different places. Each block holds one compound with its values, some of them ahead of it.
Key:
Cytotoxicity, MTT assay = format: cell-based, murine; conditions: mouse, Neuro-2a neuroblastoma cells, read-out: Cytotoxic activity EC50
Method: The murine neuroblastoma cell line Neuro-2a (CCL-131) was purchased from American Type Culture Collection (ATCC®) (Manassas, VA, USA). Cells were cultured in Dulbecco’s Modified Eagle Medium (Biolot, St. Petersburg, Russia). The medium contained 10% fetal bovine serum (Biolot, St. Petersburg, Russia) and 1% penicillin/streptomycin (Biolot, St. Petersburg, Russia). Cells were incubated at 37 °C in a humidified atmosphere containing 5% (v/v) CO2.
Stock solutions of polyphenolic compounds were prepared in DMSO at a concentration of 10 mM. […]
We incubated Neuro-2a cells (1 × 10^4 cells/well) at 37 °C in a CO2 incubator for 24 h until they formed an adherent monolayer. Then, 20 μL of the tested solution was loaded onto the cells and incubated for 24 h. After incubation, the medium containing the polyphenolic test compounds was replaced by 100 μL of fresh medium. Then, we added 10 μL of MTT (3-(4,5-dimethylthiazol-2-yl)-2,5-diphenyltetrazolium bromide) (Sigma-Aldrich, St. Louis, MO, USA) stock solution (5 mg/mL) to each well and incubated the microplate for 4 h. Then, 100 μL of SDS-HCl solution (1 g SDS/10 mL dH2O/17 μL 6 M HCl) was added to each well, followed by incubation for 18 h. We measured the absorbance of the converted dye formazan on a Multiskan FC microplate photometer (Thermo Scientific, Waltham, MA, USA) at a wavelength of 570 nm. We performed all experiments in triplicate and expressed the cytotoxic activity as percent of living cells.

[1] = system: PQ-treated Neuro-2a cells; assay: PQ-induced neurotoxicity, cell viability (MTT); format: cell-based, murine; conditions: PQ 1 mM; for Effect on percentage of living cells after treatment with PQ: compounds 0.01–10 μM, 1 h pre-treatment, MTT after 24 h
Method: (§1) After 24 h of adhesion, Neuro-2a cells (1 × 10^4 cells/well) were treated with polyphenolic compounds at concentrations of 0.01–10 μM for 1 h. Subsequently, 1 mM of PQ, 10 μM rotenone or 80 μM of 6-OHDA (Sigma-Aldrich, St. Louis, MO, USA) were added. We used MTT assay to determine the percentage of living cells (cell viability) after 24 h of incubation. Cells incubated without inductors or with inductors were used as positive and negative control, respectively. The results are presented as percentages of the positive control value.

[2] = system: 6-OHDA-treated Neuro-2a cells; assay: 6-OHDA-induced neurotoxicity, cell viability (MTT); format: cell-based, murine; conditions: 6-OHDA 80 µM, p < 0.05
Method: as §1

[3] = system: 6-OHDA-treated Neuro-2a cells; assay: ROS level in 6-OHDA-treated cells (H2DCF-DA); format: cell-based, murine; conditions: 6-OHDA 80 µM, 1 h; H2DCF-DA
Method: (§2) After 24 h of adhesion, Neuro-2a cells (1 × 10^4 cells/well) were incubated with compounds (0.01–10 µM) for 1 h. Then, we added rotenone (10 μM), 6-OHDA (80 μM), or PQ (1 mM) to each well and incubated cells for 1 h, 1 h, or 3 h, respectively. To evaluate the level of intracellular ROS, we added 20 µL of 2,7-dichlorodihydrofluorescein diacetate solution ([…], H2DCF-DA, Molecular Probes, Eugene, OR, USA) to each well, so that the final concentration was 10 µM, and incubated the microplate at 37 °C for an additional 30 min. Quercetin was used as a reference compound.

[4] = set-up: method as in PMID 31004693; conditions: 30 min; mean ± SEM, n = 3; previously published; read-out: DPPH-Scavenging Effect SC50; cited from earlier work
[5] = set-up: method as in PMID 31004693; conditions: mean ± SEM, n = 3; previously published; cited from earlier work
[6] = system: human triple-negative breast cancer HTB-19; set-up: method as in PMID 32087226; conditions: cited from earlier work
[7] = system: esophageal squamous cell carcinoma Kyse-30; set-up: method as in PMID 32087226; conditions: cited from earlier work
[8] = system: hepatocellular carcinoma HEPG-2; set-up: method as in PMID 32087226; conditions: cited from earlier work
[9] = system: retina pigmented epithelium cells RPE-1; set-up: method as in PMID 32087226; conditions: RPE-1 normal cell line; cited from earlier work
[10] = system: human embryonic kidney cells HEK-293; set-up: method as in PMID 32087226; conditions: HEK-293 normal cell line; cited from earlier work
[11] = system: PQ-treated Neuro-2a cells; assay: ROS level in PQ-treated cells (H2DCF-DA); format: cell-based, murine; conditions: PQ 1 mM, 3 h
Method: as §2

[12] = DPPH radical-scavenging effect; conditions: 30 min; DPPH• 10^−4 M in MeOH; mean ± SEM, n = 3; read-out: DPPH-Scavenging Effect SC50
Method: The 2,2-diphenyl-1-picrylhydrazyl (DPPH^•) radical-scavenging effect of polyphenolic compounds 7–11 was determined as described in [24]. Polyphenolic compounds 7, 8, 9, 10, and 11 were added to DPPH^• solution in MeOH (10^−4 M) at concentrations from 6 to 34 µM. The reacting mixture was kept in the dark for 30 min at room temperature. Then, we measured the absorbance at 517 nm using a Shimadzu UV 1240 spectrophotometer (Shimadzu, Kyoto, Japan). Equation (1) was used to calculate the DPPH^• radical-scavenging effect (%):(1) DPPH^• scavenging effect,%=A0−Ax/A0 where A0 is the absorbance of DPPH^• solution of a blank sample (without polyphenolic compounds); AX is the absorbance of DPPH^• solution in the presence of different concentrations of polyphenolic compounds.
Quercetin was used as a reference compound. All experiments were performed in triplicate. We calculated the half-maximal scavenging concentration (SC50) for polyphenolic compounds by plotting the DPPH^• scavenging effect (%) against the concentrations of polyphenolic compounds. SC50 values are given as the mean value ± SEM.

[13] = system: rotenone-treated Neuro-2a cells; assay: Rotenone-induced neurotoxicity, cell viability (MTT); format: cell-based, murine; conditions: for Increase in percentage of living cells after treatment with rotenone compared to rotenone-treated cells: rotenone 10 µM, MTT, p < 0.05
Method: as §1

[14] = system: rotenone-treated Neuro-2a cells; assay: ROS level in rotenone-treated cells (H2DCF-DA); format: cell-based, murine; conditions: rotenone 10 µM, 1 h
Method: as §2

[15] = Ferric reducing antioxidant power (FRAP) assay; conditions: 4 min, absorbance 595 nm; mean ± SEM, n = 3
Method: We performed the FRAP assay as described in [29]. We prepared the FRAP reagent by mixing 2.5 mL of TPTZ (2,4,6-tris(2-pyridyl)-s-triazine) solution (10 mM) in 40 mM HCl and 25 mL of FeCl3 solution (20 mM) in acetate buffer solution (300 mM, pH 3.6). Polyphenolics 7–11 were added to 3 mL of FRAP reagent at concentrations from 6 to 34 µM. The mixture was kept in the dark at room temperature for 4 min. Then, we measured the absorbance at 595 nm using a Shimadzu UV 1240 spectrophotometer. Equation (2) was used to calculate the FRAP values for polyphenolic compounds 7–11:(2) FRAP=CFe/Cx where CFe is the concentration of Fe^2+ (µM) formed in the reaction; CX is the concentration of polyphenolic compounds in the reacting mixture.
The concentration of Fe^2+ (µM) formed in the reaction was determined using the calibration curve obtained for different concentrations of FeSO4·7H2O.

[16] = system: LPS- and Aβ-induced neurotoxicity; set-up: method as in PMID 21708076; conditions: cited from earlier work
TNF-α, IL-1, and IL-6 = system: TNF-α, IL-1, and IL-6; set-up: method as in PMID 21708076; conditions: cited from earlier work
[17] = system: cerebral global-ischemia model; conditions: cited from earlier work
rats = system: rats; set-up: method as in PMID 31693927, doi:10.1016/j.jff.2017.05.002; conditions: cited from earlier work
6-OHDA-exposed worms = system: 6-OHDA-exposed worms; set-up: method as in PMID 32585871; conditions: cited from earlier work
α-synuclein = system: α-synuclein; set-up: method as in PMID 32585871; conditions: cited from earlier work
MAO-B = system: MAO-B; set-up: method as in PMID 27575476, PMID 32087226; conditions: cited from earlier work
MAO-A = system: MAO-A; set-up: method as in PMID 27575476, PMID 32087226; conditions: cited from earlier work
RAW 264.7 macrophages = system: RAW 264.7 macrophages; set-up: method as in PMID 25592708; conditions: cited from earlier work
5-lipoxygenase = system: 5-lipoxygenase; set-up: method as in PMID 28506902; conditions: cited from earlier work

SMILES: CC(C)=CCC/C(C)=C/Cc1c(O)c(O)cc2c3c(oc12)-c1ccc(O)cc1OC3 [Compound 4, lespedezol A2]
EC50 at 24 h (Cytotoxicity, MTT assay): 76 µM | Effect on percentage of living cells after treatment with PQ [1]: did not exhibit any effect | Increase in percentage of living cells after 6-OHDA treatment versus 6-OHDA-treated cells [2]: 7.0% | Effect on ROS levels in 6-OHDA-treated cells [3]: significantly decreased | EC50 [4]: 18 ± 0.2 µM | FRAP [5]: 2.78 ± 0.18 mol (Fe^2+)/mol (polyphenolic compound X) | Cytotoxicity [6]: rather cytotoxic | Cytotoxicity [7]: rather cytotoxic | Cytotoxicity [8]: rather cytotoxic | Cytotoxicity [9]: rather cytotoxic | Cytotoxicity [10]: rather cytotoxic

SMILES: CC(C)=CCC/C(C)=C/Cc1c(O)c(O)cc2c1O[C@H]1c3cc(CC=C(C)C)c(O)cc3OC[C@@H]21 [Compound 6, (6aR,11aR)-2-isoprenyl-6a,11a-dihydrolespedezol A2]
EC50 at 24 h (Cytotoxicity, MTT assay): 40.6 µM | Effect on percentage of living cells after treatment with PQ [1]: significantly increased | Concentration range in which the neuroprotective effect was detected ([1]; MTT): 0.01 to 1 µM | Increase in percentage of living cells after treatment with PQ ([1]; compound 1 μM, MTT): 17% | Effect on ROS level in PQ-treated cells [11]: slightly decreased | EC50 [4]: 21.8 ± 2 µM | FRAP [5]: 1.43 ± 0.06 mol (Fe^2+)/mol (polyphenolic compound X)

EC50 [12]: 13.5 ± 1.2 µM
SMILES: CC(C)=CCC[C@@]1(C)C=Cc2c(c(O)cc3c4c(oc23)-c2ccc(O)cc2OC4)O1 [Compound 9, lespedezol A3]
EC50 at 24 h (Cytotoxicity, MTT assay): 75 µM | Increase in percentage of living cells after 6-OHDA treatment versus 6-OHDA-treated cells [2]: 31.4% | Effect on ROS levels in 6-OHDA-treated cells [3]: significantly decreased | Increase in percentage of living cells after treatment with rotenone compared to rotenone-treated cells [13]: 10.4% | Effect on ROS levels in rotenone-treated cells [14]: did not significantly decrease

EC50 [12]: 22.7 ± 3.5 µM
SMILES: CC(C)=CCC[C@@]1(C)C=Cc2c(c(O)cc3c2oc2c4ccc(O)cc4oc(=O)c32)O1 [Compound 10, lespebicoumestan A]
FRAP [15]: 1.75 ± 0.20 mol (Fe^2+)/mol (polyphenolic compound X) | EC50 at 24 h (Cytotoxicity, MTT assay): 44 µM | Increase in percentage of living cells after 6-OHDA treatment versus 6-OHDA-treated cells [2]: 10.9% | Effect on ROS levels in 6-OHDA-treated cells [3]: significantly decreased | Increase in percentage of living cells after treatment with rotenone compared to rotenone-treated cells [13]: 13.2% | Effect on ROS levels in rotenone-treated cells [14]: did not significantly decrease

SMILES: O=c1oc2cc(O)ccc2c2oc3cc(O)ccc3c12 [Coumestrol]
Neurotoxicity induced by LPS and amyloid-beta peptide (Aβ) [16]: attenuated | Production of inflammatory cytokines TNF-α, IL-1, and IL-6 (TNF-α, IL-1, and IL-6): inhibited | Neuroprotection in a cerebral global-ischemia model [17]: effective neuroprotection | Mitochondrial activity (rats): modulated | Oxidative stress (rats): decreased

SMILES: Oc1ccc2c(c1)OC[C@H]1c3cc4c(cc3O[C@@H]21)OCO4 [maackiain]
Dopaminergic neuron damage (6-OHDA-exposed worms): significantly reduce | Accumulation of α-synuclein (α-synuclein): diminish | Inhibition of MAO-B (MAO-B): selectively inhibited | Inhibition of MAO-A (MAO-A): did not effectively inhibit | LPS-induced nitric oxide production (RAW 264.7 macrophages): inhibitory effects | Inhibition of 5-lipoxygenase (5-lipoxygenase): inhibited

SMILES: C=C(C)[C@H]1Cc2c(ccc3c2O[C@@H]2COc4cc(OC)c(OC)cc4[C@@H]2C3=O)O1 [rotenone, reference compound]
Percentage of living Neuro-2a cells compared to the control ([13]; rotenone 10 µM alone): 68%
